Assay results published in ChEMBL document CHEMBL3272271, “Folate antagonists. 13. 2,4-Diamino-6-](alpha,alpha,alpha-trifluoro-m-tolyl)thio]quinazoline and related 2,4-diamino-6-[(phenyl- and naphthyl)thio]quinazolines, a unique class of antimetabolites with extraordinary antimalarial and antibacterial effects” (J Med Chem, 1978).
In brackets after ≈: the same amount, converted by molar mass. Activity calls are given as the source filed them. The calls are words filed in the database; no cut-off is given here.

Tests used:
Plasmodium berghei [1] = experiment: Antimalarial activity against Plasmodium berghei infected in mouse assessed as disease cure from parasite infection at 160 mg/kg, sc administered 72 hrs after infection; assay type: functional, organism-based; design: dose 160 mg/kg
Plasmodium gallinaceum [2] = experiment: Antimalarial activity against trophozoite-induced Plasmodium gallinaceum infected in white leghorn chicken assessed as increase in mean survival days of host at 10 mg/kg, sc administered 72 hrs after infection relative to control; assay type: functional; details: route subcutaneous
Plasmodium berghei [3] = experiment: Ratio of quinine hydrochloride SD90 to compound SD90 for trophozoite-induced Plasmodium berghei infected in mouse assessed as daily dose required to suppression of 90% parasite infection administered with diet for 6 days; assay type: functional
Plasmodium gallinaceum [4] = experiment: Antimalarial activity against trophozoite-induced Plasmodium gallinaceum infected in white leghorn chicken assessed as disease cure from parasite infection at 320 mg/kg, sc administered 72 hrs after infection; assay type: functional, organism-based; design: dose 320 mg/kg
Plasmodium gallinaceum [5] = experiment: Antimalarial activity against sporozoite-induced Plasmodium gallinaceum infected in white leghorn chicken assessed as increase in mean survival days of host at 10 mg/kg, sc administered 72 hrs after infection relative to control; assay type: functional; details: route subcutaneous
Plasmodium berghei [6] = experiment: Antimalarial activity against Plasmodium berghei infected in mouse assessed as increase in mean survival days of host at 40 mg/kg, sc administered 72 hrs after infection relative to control; assay type: functional; details: route subcutaneous
Plasmodium gallinaceum [7] = experiment: Antimalarial activity against trophozoite-induced Plasmodium gallinaceum infected in white leghorn chicken assessed as increase in mean survival days of host at 5 mg/kg, sc administered 72 hrs after infection relative to control; assay type: functional; details: route subcutaneous
Plasmodium berghei [8] = experiment: Antimalarial activity against Plasmodium berghei infected in mouse assessed as disease cure from parasite infection at 10 mg/kg, sc administered 72 hrs after infection; assay type: functional, organism-based; design: dose 10 mg/kg
Plasmodium berghei [9] = experiment: Antimalarial activity against Plasmodium berghei infected in mouse assessed as increase in mean survival days of host at 2.5 mg/kg, sc administered 72 hrs after infection relative to control; assay type: functional; details: route subcutaneous
Plasmodium gallinaceum [10] = experiment: Antimalarial activity against sporozoite-induced Plasmodium gallinaceum infected in white leghorn chicken assessed as disease cure from parasite infection at 320 mg/kg, sc administered 72 hrs after infection; assay type: functional, organism-based; design: dose 320 mg/kg
Plasmodium gallinaceum [11] = experiment: Antimalarial activity against sporozoite-induced Plasmodium gallinaceum infected in white leghorn chicken assessed as disease cure from parasite infection at 160 mg/kg, sc administered 72 hrs after infection; assay type: functional, organism-based; design: dose 160 mg/kg
Enterococcus faecalis = experiment: Antibacterial activity against Streptococcus faecalis MGH-2 by gradient plate test; assay type: functional
Plasmodium berghei [12] = experiment: Antimalarial activity against Plasmodium berghei infected in mouse assessed as disease cure from parasite infection at 640 mg/kg, sc administered 72 hrs after infection; assay type: functional, organism-based; design: dose 640 mg/kg
Plasmodium berghei [13] = experiment: Antimalarial activity against Plasmodium berghei infected in mouse assessed as disease cure from parasite infection at 20 mg/kg, sc administered 72 hrs after infection; assay type: functional, organism-based; design: dose 20 mg/kg
Plasmodium berghei [14] = experiment: Antimalarial activity against Plasmodium berghei infected in mouse assessed as increase in mean survival days of host at 10 mg/kg, sc administered 72 hrs after infection relative to control; assay type: functional; details: route subcutaneous
Plasmodium gallinaceum [15] = experiment: Antimalarial activity against sporozoite-induced Plasmodium gallinaceum infected in white leghorn chicken assessed as disease cure from parasite infection at 40 mg/kg, sc administered 72 hrs after infection; assay type: functional, organism-based; design: dose 40 mg/kg
Plasmodium gallinaceum [16] = experiment: Antimalarial activity against trophozoite-induced Plasmodium gallinaceum infected in white leghorn chicken assessed as disease cure from parasite infection at 160 mg/kg, sc administered 72 hrs after infection; assay type: functional, organism-based; design: dose 160 mg/kg
Plasmodium gallinaceum [17] = experiment: Antimalarial activity against trophozoite-induced Plasmodium gallinaceum infected in white leghorn chicken assessed as increase in mean survival days of host at 20 mg/kg, sc administered 72 hrs after infection relative to control; assay type: functional; details: route subcutaneous
Plasmodium berghei [18] = experiment: Antimalarial activity against Plasmodium berghei infected in mouse assessed as increase in mean survival days of host at 5 mg/kg, sc administered 72 hrs after infection relative to control; assay type: functional; details: route subcutaneous
Plasmodium berghei [19] = experiment: Antimalarial activity against Plasmodium berghei infected in mouse assessed as increase in mean survival days of host at 1.25 mg/kg, sc administered 72 hrs after infection relative to control; assay type: functional; details: route subcutaneous
Pseudomonas aeruginosa = experiment: Antibacterial activity against Pseudomonas aeruginosa 28 by gradient plate test; assay type: functional
Plasmodium gallinaceum [20] = experiment: Antimalarial activity against trophozoite-induced Plasmodium gallinaceum infected in white leghorn chicken assessed as increase in mean survival days of host at 80 mg/kg, sc administered 72 hrs after infection relative to control; assay type: functional; details: route subcutaneous
Plasmodium berghei [21] = experiment: Antimalarial activity against trophozoite-induced Plasmodium berghei infected in mouse assessed as daily dose required to suppression of 90% parasite infection administered with diet for 6 days; assay type: functional
Plasmodium gallinaceum [22] = experiment: Antimalarial activity against sporozoite-induced Plasmodium gallinaceum infected in white leghorn chicken assessed as disease cure from parasite infection at 80 mg/kg, sc administered 72 hrs after infection; assay type: functional, organism-based; design: dose 80 mg/kg
Plasmodium gallinaceum [23] = experiment: Antimalarial activity against trophozoite-induced Plasmodium gallinaceum infected in white leghorn chicken assessed as increase in mean survival days of host at 0.63 mg/kg, sc administered 72 hrs after infection relative to control; assay type: functional; details: route subcutaneous
Plasmodium gallinaceum [24] = experiment: Antimalarial activity against sporozoite-induced Plasmodium gallinaceum infected in white leghorn chicken assessed as disease cure from parasite infection at 10 mg/kg, sc administered 72 hrs after infection; assay type: functional, organism-based; design: dose 10 mg/kg
Plasmodium berghei [25] = experiment: Antimalarial activity against Plasmodium berghei infected in mouse assessed as disease cure from parasite infection at 80 mg/kg, sc administered 72 hrs after infection; assay type: functional, organism-based; design: dose 80 mg/kg
Plasmodium gallinaceum [26] = experiment: Antimalarial activity against trophozoite-induced Plasmodium gallinaceum infected in white leghorn chicken assessed as disease cure from parasite infection at 80 mg/kg, sc administered 72 hrs after infection; assay type: functional, organism-based; design: dose 80 mg/kg
Plasmodium gallinaceum [27] = experiment: Antimalarial activity against trophozoite-induced Plasmodium gallinaceum infected in white leghorn chicken assessed as increase in mean survival days of host at 40 mg/kg, sc administered 72 hrs after infection relative to control; assay type: functional; details: route subcutaneous
Plasmodium berghei [28] = experiment: Antimalarial activity against Plasmodium berghei infected in mouse assessed as disease cure from parasite infection at 40 mg/kg, sc administered 72 hrs after infection; assay type: functional, organism-based; design: dose 40 mg/kg
Staphylococcus aureus [29] = experiment: Antibacterial activity against Staphylococcus aureus UC-96 by gradient plate test; assay type: functional
Plasmodium gallinaceum [30] = experiment: Antimalarial activity against trophozoite-induced Plasmodium gallinaceum infected in white leghorn chicken assessed as increase in mean survival days of host at 2.5 mg/kg, sc administered 72 hrs after infection relative to control; assay type: functional; details: route subcutaneous
Staphylococcus aureus [31] = experiment: Antibacterial activity against drug-resistant Staphylococcus aureus S18713 by gradient plate test; assay type: functional
Plasmodium berghei [32] = experiment: Antimalarial activity against Plasmodium berghei infected in mouse assessed as disease cure from parasite infection at 320 mg/kg, sc administered 72 hrs after infection; assay type: functional, organism-based; design: dose 320 mg/kg
Escherichia coli = experiment: Antibacterial activity against Escherichia coli Vogel by gradient plate test; assay type: functional
Shigella sonnei = experiment: Antibacterial activity against Shigella sonnei C-10 by gradient plate test; assay type: functional
Plasmodium gallinaceum [33] = experiment: Antimalarial activity against trophozoite-induced Plasmodium gallinaceum infected in white leghorn chicken assessed as increase in mean survival days of host at 1.25 mg/kg, sc administered 72 hrs after infection relative to control; assay type: functional; details: route subcutaneous
Plasmodium berghei [34] = experiment: Antimalarial activity against Plasmodium berghei infected in mouse assessed as increase in mean survival days of host at 20 mg/kg, sc administered 72 hrs after infection relative to control; assay type: functional; details: route subcutaneous
Plasmodium gallinaceum [35] = experiment: Antimalarial activity against sporozoite-induced Plasmodium gallinaceum infected in white leghorn chicken assessed as disease cure from parasite infection at 20 mg/kg, sc administered 72 hrs after infection; assay type: functional, organism-based; design: dose 20 mg/kg
Plasmodium berghei [36] = experiment: Antimalarial activity against Plasmodium berghei infected in mouse assessed as increase in mean survival days of host at 160 mg/kg, sc administered 72 hrs after infection relative to control; assay type: functional; details: route subcutaneous
Plasmodium berghei [37] = experiment: Antimalarial activity against Plasmodium berghei infected in mouse assessed as increase in mean survival days of host at 640 mg/kg, sc administered 72 hrs after infection relative to control; assay type: functional; details: route subcutaneous
[38] = system: Mycobacterium tuberculosis; experiment: Antibacterial activity against Mycobacterium tuberculosis H37Ra by gradient plate test; assay type: functional
Plasmodium gallinaceum [39] = experiment: Antimalarial activity against sporozoite-induced Plasmodium gallinaceum infected in white leghorn chicken assessed as increase in mean survival days of host at 20 mg/kg, sc administered 72 hrs after infection relative to control; assay type: functional; details: route subcutaneous
Gallus gallus = experiment: Toxicity in sporozoite-induced Plasmodium gallinaceum infected white leghorn chicken assessed as mortality at 320 mg/kg, sc administered 72 hrs after infection measured up to 6 days; assay type: organism-based; design: dose 320 mg/kg, route subcutaneous; details: in vivo

Row | SMILES | Activity (Plasmodium berghei [1]) | Ratio (Plasmodium berghei [3]) | MST (Plasmodium gallinaceum [5]) | MST (Plasmodium berghei [6]) | MST (Plasmodium berghei [9]) | Activity (Plasmodium gallinaceum [10]) | Activity (Plasmodium gallinaceum [11]) | MIC (Enterococcus faecalis) | Activity (Plasmodium berghei [12]) | Activity (Plasmodium berghei [13]) | MST (Plasmodium berghei [14]) | Activity (Plasmodium gallinaceum [15]) | MST (Plasmodium berghei [18]) | MST (Plasmodium berghei [19]) | MIC (Pseudomonas aeruginosa) | SD90 (Plasmodium berghei [21]) | MIC (Staphylococcus aureus [29]) | MIC (Staphylococcus aureus [31]) | MIC (Escherichia coli) | MIC (Shigella sonnei) | further results
1 | Cc1ccc(Cl)cc1Sc1ccc2nc(N)nc(N)c2c1 | Active | 170 | 7 days | 25.7 days | 4.1 days | Active | Active | < 0.25 µg/mL | Active | Active | 8.8 days | Active | 9.5 days | 2.7 days | > 25 µg/mL | 0.43 mg/kg/day | < 0.25 µg/mL | < 0.25 µg/mL | < 0.25 µg/mL | 1.5 µg/mL (≈ 4.73 µM) | MST (Plasmodium gallinaceum [2]): 5.8 days; Activity (Plasmodium gallinaceum [4]): Active; MST (Plasmodium gallinaceum [7]): 3.6 days; Activity (Plasmodium berghei [8]): Active; Activity (Plasmodium gallinaceum [16]): Active; MST (Plasmodium gallinaceum [17]): 7.4 days; MST (Plasmodium gallinaceum [20]): 18 days; Activity (Plasmodium gallinaceum [22]): Active; MST (Plasmodium gallinaceum [23]): 0 days; Activity (Plasmodium gallinaceum [24]): Active; Activity (Plasmodium berghei [25]): Active; Activity (Plasmodium gallinaceum [26]): Active; MST (Plasmodium gallinaceum [27]): 7.8 days; Activity (Plasmodium berghei [28]): Active; MST (Plasmodium gallinaceum [30]): 1.4 days; Activity (Plasmodium berghei [32]): Active; MST (Plasmodium gallinaceum [33]): 0 days; MST (Plasmodium berghei [34]): 17.8 days; Activity (Plasmodium gallinaceum [35]): Active
2 | Nc1nc(N)c2c(Cl)c(Sc3ccccc3)ccc2n1 | – | – | – | 4.7 days | – | – | – | < 0.25 µg/mL | Active | – | – | – | – | – | > 25 µg/mL | – | < 0.25 µg/mL | < 0.25 µg/mL | < 0.25 µg/mL | < 0.25 µg/mL | MST (Plasmodium berghei [36]): 13.9 days; MST (Plasmodium berghei [37]): 9.9 days; MIC [38]: 10 µg/mL (≈ 33 µM); MST (Plasmodium berghei [34]): 3.9 days
3 | COc1ccc(Sc2ccc3nc(N)nc(N)c3c2)cc1 | Active | 62 | 2.2 days | – | 3.8 days | Active | Active | < 0.25 µg/mL | Active | Active | 9.6 days | Active | 4.8 days | 2.2 days | > 25 µg/mL | 1.2 mg/kg/day | < 0.25 µg/mL | < 0.25 µg/mL | < 0.25 µg/mL | 1.5 µg/mL (≈ 5.03 µM) | MST (Plasmodium gallinaceum [39]): 3.2 days; Activity (Plasmodium gallinaceum [22]): Active; Activity (Plasmodium gallinaceum [24]): Active; Activity (Gallus gallus): Toxic; Activity (Plasmodium berghei [25]): Active; Activity (Plasmodium berghei [28]): Active; Activity (Plasmodium berghei [32]): Active; Activity (Plasmodium gallinaceum [35]): Active
